Assay results as given in US11168058B2, “Manufacture of a crystalline pharmaceutical product” (ORION CORPORATION, priority 2017, dated 2021).

Key:
Format in all cases: physicochemical
[1] = Specific surface area (SSA) by three-point nitrogen adsorption (BET), TriStar 3000; details: for SSA: Table 1, batch A; for SSA / Specific surface area: crystalline rounded particles before/after milling; for Specific surface area: Table 2, batch B
Protocol: The specific surface area (SSA) of crystalline particles of compound (I) can be analyzed using the three-point nitrogen adsorption technique based on the Brunauer, Emmett and Teller (BET) theory, for example using TriStar 3000 automated gas adsorption analyzer, (Micromeritics, Inc.). The samples are suitably vacuum dried for 20 hours at 40° C. The volumetric method can be used at the relative pressure range of 0.1-0.3 P/P0.
(§1) The specific surface area (SSA) and particle size distribution (PSD) were determined for two batches (A and B) of crystalline rounded particles of compound (I) prepared according to the present invention. The particles of the two batches were then milled followed by the determination of SSA and PSD.
The specific surface area was measured using the three-point nitrogen adsorption technique based on the Brunauer, Emmett and Teller (BET) theory using TriStar 3000 automated gas adsorption analyzer (Micromeritics, Inc.). The samples were vacuum dried for 20 hours in 40° C. The volumetric method was applied at the relative pressure range 0.1-0.3 P/P0.

[2] = Particle size distribution by laser light diffraction (Beckman Coulter LS13320, dry powder); details: for Volume particle size, Dv10 / Volume particle size, Dv50 / Volume particle size, Dv90: before/after milling
Protocol: The particle size distribution of crystalline particles of compound (I) can be analyzed by laser light diffraction, for example using Beckman Coulter LS13320 laser diffraction particle size analyzer equipped with Tornado Dry Powder System using air as dispersion medium with measurement pressure 24″H2O±2″H2O, sample amount 10 ml, system controlled target 5% for obscuration and applying Fraunhofer optical model.
The parameters considered are the volumetric diameters in μm of the 10th, 50th and 90th percentiles of the particles, expressed as Dv10, Dv50 and Dv90 respectively, which are determined by assuming that the particles have a geometric shape equivalent to a sphere.
The particle size distribution of the crystalline rounded particles of compound (I) prepared according to the present invention was determined by laser light diffraction. The determination was carried out by using Beckman Coulter LS13320 laser diffraction particle size analyzer equipped with Tornado Dry Powder System using air as dispersion medium with measurement pressure 24″H2O±2″H2O, sample amount 10 ml, system controlled target 5% for obscuration and applying Fraunhofer optical model. According to the analysis, Dv10 value of the particles is 359 μm, Dv50 is 632 μm and Dv90 is 925 μm.
as §1

[3] = Solubility in water (statement)
[4] = Example 4, crystalline rounded particles, FIG. 1

| SMILES | SSA [1] [m^2/g] | Volume particle size, Dv10 ([2]; Table 1, batch A) [μm] | Volume particle size, Dv50 ([2]; Table 1, batch A) [μm] | Volume particle size, Dv90 ([2]; Table 1, batch A) [μm] | Specific surface area [1] [m^2/g] | Volume particle size, Dv10 ([2]; Table 2, batch B) [μm] | Volume particle size, Dv50 ([2]; Table 2, batch B) [μm] | Volume particle size, Dv90 ([2]; Table 2, batch B) [μm] | other results |
| --- | --- | --- | --- | --- | --- | --- | --- | --- | --- |
| CC(O)c1cc(C(=O)N[C@@H](C)Cn2ccc(-c3ccc(C#N)c(Cl)c3)n2)n[nH]1 (stereo partly drawn) [A (milled)] | 14 | 2 | 36 | 218 |  |  |  |  |  |
| CC(O)c1cc(C(=O)N[C@@H](C)Cn2ccc(-c3ccc(C#N)c(Cl)c3)n2)n[nH]1 (stereo partly drawn) [A (unmilled)] | 13 | 171 | 407 | 625 |  |  |  |  |  |
| CC(O)c1cc(C(=O)N[C@@H](C)Cn2ccc(-c3ccc(C#N)c(Cl)c3)n2)n[nH]1 (stereo partly drawn) [compound (I), N—((S)-1-(3-(3-chloro-4-cyanophenyl)-1H-pyrazol-1-yl)-propan-2-yl)-5-(1-hydroxyethyl)-1H-pyrazole-3-carboxamide] |  |  |  |  |  |  |  |  | Change of specific surface area (SSA) on milling to reduced particle size ([1]; batches A and B, milled vs unmilled): did not significantly change; Dv10 [2, 4]: 359 μm; Dv50 [2, 4]: 632 μm; Dv90 [2, 4]: 925 μm; Solubility in water [3]: poorly soluble in water |

Continued, in another order:

| SSA [1] [m^2/g] | Volume particle size, Dv10 ([2]; Table 1, batch A) [μm] | Volume particle size, Dv50 ([2]; Table 1, batch A) [μm] | Volume particle size, Dv90 ([2]; Table 1, batch A) [μm] | Specific surface area [1] [m^2/g] | Volume particle size, Dv10 ([2]; Table 2, batch B) [μm] | Volume particle size, Dv50 ([2]; Table 2, batch B) [μm] | Volume particle size, Dv90 ([2]; Table 2, batch B) [μm] | SMILES | other results |
| --- | --- | --- | --- | --- | --- | --- | --- | --- | --- |
|  |  |  |  | 13 | 3 | 96 | 292 | CC(O)c1cc(C(=O)N[C@@H](C)Cn2ccc(-c3ccc(C#N)c(Cl)c3)n2)n[nH]1 (stereo partly drawn) [B (milled)] |  |
|  |  |  |  | 12 | 176 | 389 | 826 | CC(O)c1cc(C(=O)N[C@@H](C)Cn2ccc(-c3ccc(C#N)c(Cl)c3)n2)n[nH]1 (stereo partly drawn) [B (unmilled)] |  |
